Assay results reported in PubChem BioAssay AID1963867 (Molecular Pharmacology Branch, DTP, NCI, 2024).
pIC50: −log10 of the molar value.

Tested on: KRAS-mutant PDC tumor spheroid with HUVEC/MSC, viability
Assay: Anticancer human tumor 327498-153-R-J2-PDC patient-derived uterine carcinosarcoma cell line growth inhibition [KRAS2]
Details: for pIC50: curve of first compound; for viability, T/C: stronger effect = lower value
Summary of the method: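 Combination screen of spheroid viability in tumor-cell co-cultures with endothelial (HUVEC) and mesenchymal stem cell stroma. Each agent was tested in half-log dilutions, topping at clinical Cmax or at 10 microM without a known Cmax.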

[1] = second compound 0.1 µM, first compound 0.000316 µM
[2] = second compound 0.1 µM, first compound 0.001 µM
[3] = second compound 0.1 µM, first compound 0.00316 µM
[4] = second compound 0.1 µM, first compound 0.01 µM
[5] = second compound 0.1 µM, first compound 0.0316 µM
[6] = second compound 0.316 µM, first compound 0.000316 µM
[7] = second compound 0.316 µM, first compound 0.001 µM
[8] = second compound 0.316 µM, first compound 0.00316 µM
[9] = second compound 0.316 µM, first compound 0.01 µM
[10] = second compound 0.316 µM, first compound 0.0316 µM
[11] = second compound 1 µM, first compound 0.000316 µM
[12] = second compound 1 µM, first compound 0.001 µM
[13] = second compound 1 µM, first compound 0.00316 µM
[14] = second compound 1 µM, first compound 0.01 µM
[15] = second compound 1 µM, first compound 0.0316 µM
[16] = second compound 3.16 µM, first compound 0.000316 µM
[17] = second compound 3.16 µM, first compound 0.001 µM
[18] = second compound 3.16 µM, first compound 0.00316 µM
[19] = second compound 3.16 µM, first compound 0.01 µM
[20] = second compound 3.16 µM, first compound 0.0316 µM
[21] = second compound 10 µM, first compound 0.000316 µM
[22] = second compound 10 µM, first compound 0.001 µM
[23] = second compound 10 µM, first compound 0.00316 µM
[24] = second compound 10 µM, first compound 0.01 µM
[25] = second compound 10 µM, first compound 0.0316 µM
[26] = second compound 0.1 µM, first compound 0.1 µM
[27] = second compound 0.316 µM, first compound 0.1 µM
[28] = second compound 1 µM, first compound 0.1 µM
[29] = second compound 3.16 µM, first compound 0.1 µM
[30] = second compound 10 µM, first compound 0.1 µM
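Further: spheroids exposed to agents for seven days before reading.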
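Wherever viability, T/C is given: 100% = DMSO vehicle wells so lower means fewer viable cells.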

CC(=O)Nc1cccc(-n2c(=O)n(C3CC3)c(=O)c3c(Nc4ccc(I)cc4F)n(C)c(=O)c(C)c32)c1 + CNCc1ccccc1-c1csc(C(C)Nc2nc(C)nc3cc(OC)c(OC)cc23)c1
pIC50 (second compound 0.1 µM): 8.36
pIC50 (second compound 0.316 µM): 8.33
pIC50 (second compound 1 µM): 8.63
pIC50 (second compound 3.16 µM): > 10.00
pIC50 (second compound 10 µM): > 10.00
viability, T/C (second compound 0.1 µM, first compound 0.0001 µM): 84%
viability, T/C [1]: 67%
viability, T/C [2]: 61.8%
viability, T/C [3]: 56.1%
viability, T/C [4]: 43.9%
viability, T/C [5]: 29.6%
viability, T/C (second compound 0.316 µM, first compound 0.0001 µM): 71.6%
viability, T/C [6]: 67.8%
viability, T/C [7]: 58.4%
viability, T/C [8]: 51.3%
viability, T/C [9]: 48.5%
viability, T/C [10]: 27%
viability, T/C (second compound 1 µM, first compound 0.0001 µM): 70.9%
viability, T/C [11]: 60.8%
viability, T/C [12]: 53.9%
viability, T/C [13]: 49.3%
viability, T/C [14]: 41.9%
viability, T/C [15]: 23.6%
viability, T/C (second compound 3.16 µM, first compound 0.0001 µM): 37.2%
viability, T/C [16]: 38.7%
viability, T/C [17]: 22.7%
viability, T/C [18]: 0.12%
viability, T/C [19]: 5.68%
viability, T/C [20]: 2.54%
viability, T/C (second compound 10 µM, first compound 0.0001 µM): 0.18%
viability, T/C [21]: 0.87%
viability, T/C [22]: 0.14%
viability, T/C [23]: 0.14%
viability, T/C [24]: 0.15%
viability, T/C [25]: 0.21%

CC(=O)OC12COC1CC(O)C1(C)C(=O)C(O)C3=C(C)C(OC(=O)C(O)C(NC(=O)OC(C)(C)C)c4ccccc4)CC(O)(C(OC(=O)c4ccccc4)C21)C3(C)C (stereo not given) + CNCc1ccccc1-c1csc(C(C)Nc2nc(C)nc3cc(OC)c(OC)cc23)c1
pIC50 (second compound 0.1 µM): > 8.00
pIC50 (second compound 0.316 µM): > 8.00
pIC50 (second compound 1 µM): > 8.00
pIC50 (second compound 3.16 µM): > 8.00
pIC50 (second compound 10 µM): > 8.00
viability, T/C [4]: 7.46%
viability, T/C [5]: 5.57%
viability, T/C [26]: 5.61%
viability, T/C (second compound 0.1 µM, first compound 0.316 µM): 7.57%
viability, T/C (second compound 0.1 µM, first compound 1 µM): 8.63%
viability, T/C (second compound 0.1 µM, first compound 3.16 µM): 13.1%
viability, T/C [9]: 7.41%
viability, T/C [10]: 5.76%
viability, T/C [27]: 8.79%
viability, T/C (second compound 0.316 µM, first compound 0.316 µM): 6.37%
viability, T/C (second compound 0.316 µM, first compound 1 µM): 9.11%
viability, T/C (second compound 0.316 µM, first compound 3.16 µM): 10.8%
viability, T/C [14]: 9.89%
viability, T/C [15]: 6.01%
viability, T/C [28]: 6.6%
viability, T/C (second compound 1 µM, first compound 0.316 µM): 7.2%
viability, T/C (second compound 1 µM, first compound 1 µM): 11%
viability, T/C (second compound 1 µM, first compound 3.16 µM): 10.6%
viability, T/C [19]: 8.09%
viability, T/C [20]: 0.04%
viability, T/C [29]: 0.03%
viability, T/C (second compound 3.16 µM, first compound 0.316 µM): 0.04%
viability, T/C (second compound 3.16 µM, first compound 1 µM): 0.48%
viability, T/C (second compound 3.16 µM, first compound 3.16 µM): 10.4%
viability, T/C [24]: 0.78%
viability, T/C [25]: 0.42%
viability, T/C [30]: 2.08%
viability, T/C (second compound 10 µM, first compound 0.316 µM): 0.12%
viability, T/C (second compound 10 µM, first compound 1 µM): 10.2%
viability, T/C (second compound 10 µM, first compound 3.16 µM): 0.25%

CN(C)C/C=C/C(=O)Nc1cc2c(Nc3ccc(F)c(Cl)c3)ncnc2cc1O[C@H]1CCOC1 + CNCc1ccccc1-c1csc(C(C)Nc2nc(C)nc3cc(OC)c(OC)cc23)c1
pIC50 (second compound 0.1 µM): < 7.00
pIC50 (second compound 0.316 µM): < 7.00
pIC50 (second compound 1 µM): < 7.00
pIC50 (second compound 3.16 µM): 8.76
pIC50 (second compound 10 µM): > 9.50
viability, T/C [1]: 87.9%
viability, T/C [2]: 79.1%
viability, T/C [3]: 79.7%
viability, T/C [4]: 81%
viability, T/C [5]: 71.5%
viability, T/C [26]: 77.4%
viability, T/C [6]: 78.9%
viability, T/C [7]: 67.8%
viability, T/C [8]: 73.9%
viability, T/C [9]: 67.2%
viability, T/C [10]: 65.8%
viability, T/C [27]: 64%
viability, T/C [11]: 76.6%
viability, T/C [12]: 67.9%
viability, T/C [13]: 64%
viability, T/C [14]: 73.4%
viability, T/C [15]: 58.2%
viability, T/C [28]: 65.7%
viability, T/C [16]: 62.1%
viability, T/C [17]: 51.1%
viability, T/C [18]: 42.6%
viability, T/C [19]: 1.18%
viability, T/C [20]: 22.6%
viability, T/C [29]: 21.1%
viability, T/C [21]: 0.49%
viability, T/C [22]: 0.76%
viability, T/C [23]: 0.34%
viability, T/C [24]: 0.27%
viability, T/C [25]: 1.73%
viability, T/C [30]: 0.36%
